# Reference: US20250002460A1, “SORTILIN INHIBITORS” (SORTINA PHARMA AB, priority 2021, published 2025)
# Experiments:
# MDA-MB-231 xenograft = MDA-MB-231 xenograft in vivo model, metastasis assessment; parameters: species or system NOD SCID gamma mice; conditions: compared to vehicle control; RC3 5-50 μg/day/mouse in drinking water for 21 days
# Experimental: Luciferase tagged MDA-MB-231 cells were injected at a concentration of 0.2×10^6 cells subcutaneously into two sites of the flank of NOD SCID gamma mice (Taconic, Denmark). Cells were prepared in a 60% mixture of matrigel (growth factor reduced, BD Bioscience) and 40% complete media. The size of the tumors were determined by calliper measurement of the subcutaneous tumor mass two times per week and tumor volume was calculated according to the formula volume=(length×(width)^2/2). Assessments of metastasis were performed using the IVIS® whole body imager (PerkinElmer) based on luciferase expression from stably transfected cell lines.
# [1] = system: MDA-MB-231 breast cancer cell line; experiment: Secondary sphere formation assay in MDA-MB-231; type: cell-based; conditions: 48 hours; for progranulin induced secondary sphere formation: MDA-MB-231, in combination with 500 nM progranulin; for baseline sphere formation, compound used alone: MDA-MB-231, without progranulin
# Experimental: (§1) C-terminal Progranulin (progranulin) (Casio, peptide sequence: […], SEQ ID NO: 5) were reconstituted in sterile PBS upon delivery, aliquoted and stored at −20° C. Working stock concentrations were achieved by dilution in culture media. […] 5% CO2 and 21% O2 before performing the primary followed by secondary sphere formation assay.
# (§2) The sphere formation assay was performed as described previously (Mammary Gland Biol Neoplasia, 2012, 17(2): 111-117). Briefly, single cell suspensions were obtained following treatment with respective sortilin inhibitors SI1, SI5, SI8, SI25, SI32, SI39, SI51 and SI62 of the invention and seeded in phenol red-free DMEM/F-12 (Gibco®, Life Technologies), supplemented with 1% B27 supplement (Fisher Scientific, Invitrogen), 1% P/S and 20 ng/ml EGF (BD Biosciences) onto non-adherent polyhema-coated plates. After cultivation for five days, single cell suspensions were obtained from the primary spheres and seeded again in phenol red-free DMEM/F-12 supplemented with 1% B27 supplement, 1% P/S and 20 ng/ml EGF onto non-adherent polyhema-coated plates for 5-7 days. Subsequently, spheres greater than 50 μm in diameter were counted manually in the microscope.
# human sortilin (sSORT) = biological target: T1, human sortilin (sSORT) (Homo sapiens, UniProt Q99523); experiment: Neurotensin competitive fluorescence polarization binding assay (FPA); conditions: mean IC50 values for sortilin inhibitors, IC50 (nM), 100 nM sSORT, 10 nM Neurotensin-Ahx-FITC, 1 h room temperature
# T1 sequence (Q99523 78-756 limits assumed): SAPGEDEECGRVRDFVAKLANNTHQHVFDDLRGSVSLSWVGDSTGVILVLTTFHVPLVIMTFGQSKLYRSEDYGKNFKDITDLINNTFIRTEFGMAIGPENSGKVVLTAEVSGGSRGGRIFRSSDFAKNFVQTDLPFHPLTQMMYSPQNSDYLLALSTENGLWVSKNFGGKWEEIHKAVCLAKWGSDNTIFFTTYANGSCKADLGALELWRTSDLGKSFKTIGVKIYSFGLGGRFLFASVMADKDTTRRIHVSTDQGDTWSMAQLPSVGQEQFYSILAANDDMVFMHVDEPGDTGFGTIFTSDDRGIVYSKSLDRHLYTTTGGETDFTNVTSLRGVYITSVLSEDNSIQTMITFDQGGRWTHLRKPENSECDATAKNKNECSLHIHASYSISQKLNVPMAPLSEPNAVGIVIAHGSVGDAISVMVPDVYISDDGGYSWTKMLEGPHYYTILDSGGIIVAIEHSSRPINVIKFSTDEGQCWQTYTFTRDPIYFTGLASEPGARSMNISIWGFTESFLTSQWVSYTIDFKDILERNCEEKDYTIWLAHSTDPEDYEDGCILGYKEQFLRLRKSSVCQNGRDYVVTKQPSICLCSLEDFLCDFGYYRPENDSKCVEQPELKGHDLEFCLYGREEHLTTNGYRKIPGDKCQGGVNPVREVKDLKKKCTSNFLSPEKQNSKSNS
# Experimental: Fresh 0.1% bovine serum albumin (BSA) was added to the assay buffer to obtain the final concentration: 50 mM HEPES, pH 7.4; 100 mM NaCl; 2.0 mM CaCl2; 0.1% BSA; 0.1% TWEEN® 20. The sortilin inhibitors of the invention and reference compounds (see Table 1) analyzed in the screen and neurotensin (used as an assay control) were serially diluted in ten different concentrations in assay buffer. In each well of a Nunc® MaxiSorp™ 384-well plate (Sigma Aldrich), 100 nM sSORT was mixed with pre-diluted sortilin inhibitors and 10 nM Neurotensin-Ahx-FITC in assay buffer adjusted to contain 1% DMSO in a final volume of 20 μl. The plate was then briefly centrifuged prior to 1 h incubation at room temperature in the dark.
# [2] = system: colon cancer cell line HT-29; experiment: Sphere formation assay in HT-29; type: cell-based; conditions: HT-29, FIG. 5
# Experimental: as §1, §2
# [3] = system: melanoma cell line SK-MEL-30; experiment: Sphere formation assay in SK-MEL-30; type: cell-based; conditions: SK-MEL-30, FIG. 6
# Experimental: as §1, §2
Structure (SMILES),IC50 (human sortilin (sSORT)) [nM],lung metastasis / metastasis formation (MDA-MB-231 xenograft),progranulin induced secondary sphere formation [1],"baseline sphere formation, compound used alone [1]",colon cancer cell sphere formation [2],melanoma cancer cell sphere formation [3]
"Cc1cccc(NC(=O)c2ccc(C(F)(F)F)cc2C(=O)O)n1 [RC3, 2-(N-6-Methyl-2-pyridylcarbamoyl)-5-(trifluoromethyl)benzoic acid, reference compound]",–,induced lung metastasis,reduced sphere formation,increased sphere formation,–,–
"CC(C)(C)/C=C/C(NC(=O)c1ccc(OCc2ccccc2)nc1)C(=O)O (centres unmarked) [SI39, (E)-2-[6-(benzyloxy)nicotinoylamino]-5,5-dimethyl-3-hexenoic acid]",65,–,–,reduced baseline sphere formation,–,–
"CC(C)(C)/C=C/C(NC(=O)c1ccc(-c2cccs2)cc1)C(=O)O (centres unmarked) [SI51, (E)-5,5-dimethyl-2-[p-(2-thienyl)benzoylamino]-3-hexenoic acid]",80,–,–,reduced baseline sphere formation,–,–

# Continued by falling IC50 (human sortilin (sSORT)), values first:
IC50 (human sortilin (sSORT)) [nM],Structure (SMILES),lung metastasis / metastasis formation (MDA-MB-231 xenograft),progranulin induced secondary sphere formation [1],"baseline sphere formation, compound used alone [1]",colon cancer cell sphere formation [2],melanoma cancer cell sphere formation [3]
61,"CC(C)(C)/C=C/C(NC(=O)c1cc(Cl)c(Cl)s1)C(=O)O (centres unmarked) [SI62, (E)-2-(4,5-dichloro-2-thienylcarbonylamino)-5,5-dimethyl-3-hexenoic acid]",–,–,reduced baseline sphere formation,–,reduced
59,"Cc1nc(N(C)C)ncc1C(=O)NC(/C=C/C(C)(C)C)C(=O)O (racemic) [SI1, (E)-2-[2-(dimethylamino)-4-methyl-5-pyrimidinylcarbonylamino]-5,5-dimethyl-3-hexenoic acid]",–,reduced sphere formation,reduced baseline sphere formation,–,–
31,"CC(C)(C)/C=C/C(NC(=O)c1cccc(-n2ccnc2)c1)C(=O)O (centres unmarked) [SI25, (E)-5,5-dimethyl-2[m-(1-imidazolyl)benzoylamino]-3-hexenoic acid]",–,–,reduced baseline sphere formation,–,–
17,"CC(C)(C)/C=C/C(NC(=O)c1ccc(Oc2ccccc2)nc1)C(=O)O (racemic) [SI5, (E)-5,5-dimethyl-2-(6-phenoxynicotinoylamino)-3-hexenoic acid]",reduced metastasis formation,reduced sphere formation,reduced baseline sphere formation,reduced,–
